Test results taken from ChEMBL document CHEMBL2375252, “Novel indoline-2,3-dione derivatives as inhibitors of aminopeptidase N (APN)” (Bioorg Med Chem, 2013).

Assays:
[1] = target: Histone deacetylase 1/3/5/8 (Homo sapiens, UniProt Q13547+O15379+Q9UQL6+Q9BY41); experiment: Inhibition of HDAC1/3/5/8 in human HeLa cell extract using Boc-Lys-(acetyl)-AMC as substrate incubated for 5 mins prior to substrate addition measured after 30 mins by fluorometric analysis; type: protein assay
Aminopeptidase N [2] = target: T1, Aminopeptidase N (Sus scrofa, UniProt P15145); experiment: Inhibition of pig kidney microsome aminopeptidase-N using L-leu-p-nitroanilide as substrate incubated for 5 mins prior to substrate addition measured after 30 mins by spectrophotometric analysis
T1 sequence (P15145 whole entry): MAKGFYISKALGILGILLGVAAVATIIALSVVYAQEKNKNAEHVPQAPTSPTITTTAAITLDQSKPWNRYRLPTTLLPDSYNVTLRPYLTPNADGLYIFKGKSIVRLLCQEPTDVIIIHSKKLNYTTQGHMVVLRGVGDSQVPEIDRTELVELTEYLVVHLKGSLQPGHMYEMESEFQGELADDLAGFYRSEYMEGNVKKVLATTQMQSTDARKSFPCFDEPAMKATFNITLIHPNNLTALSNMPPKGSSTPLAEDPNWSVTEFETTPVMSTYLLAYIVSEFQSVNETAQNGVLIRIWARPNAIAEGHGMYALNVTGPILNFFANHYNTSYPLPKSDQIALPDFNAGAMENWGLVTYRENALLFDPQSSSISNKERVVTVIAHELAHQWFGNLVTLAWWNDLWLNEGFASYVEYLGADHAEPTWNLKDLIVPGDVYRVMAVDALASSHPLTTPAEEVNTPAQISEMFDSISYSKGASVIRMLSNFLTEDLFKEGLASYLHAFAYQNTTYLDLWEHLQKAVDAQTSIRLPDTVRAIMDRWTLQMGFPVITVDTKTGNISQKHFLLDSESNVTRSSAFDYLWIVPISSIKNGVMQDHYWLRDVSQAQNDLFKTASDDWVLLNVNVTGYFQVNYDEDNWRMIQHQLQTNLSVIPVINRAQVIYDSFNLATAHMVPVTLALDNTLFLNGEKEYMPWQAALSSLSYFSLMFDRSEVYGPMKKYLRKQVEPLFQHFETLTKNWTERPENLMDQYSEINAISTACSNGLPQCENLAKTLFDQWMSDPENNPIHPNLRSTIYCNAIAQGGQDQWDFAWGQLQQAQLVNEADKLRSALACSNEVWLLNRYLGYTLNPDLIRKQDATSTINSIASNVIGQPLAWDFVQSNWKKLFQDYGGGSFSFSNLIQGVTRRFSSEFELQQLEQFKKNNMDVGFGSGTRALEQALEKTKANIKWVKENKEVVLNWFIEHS

Aminopeptidase N [3] = target: Aminopeptidase N (Homo sapiens, UniProt P15144); experiment: Inhibition of aminopeptidase-N in human ES2 cells using L-leu-p-nitroanilide as substrate incubated for 5 mins prior to substrate addition measured after 30 mins by spectrophotometric analysis; type: cell-based
[4] = Cytotoxicity against human ES2 cells after 48 hrs by MTT assay; conditions: ES-2, 48 h
MDA-MB-231 = experiment: cells; conditions: Homo sapiens, MDA-MB-231, 48 h
Description: Cytotoxicity against human MDA-MB-231 cells after 48 hrs by MTT assay

Chain of Aminopeptidase N (Homo sapiens, UniProt P15144) (P15144 whole entry): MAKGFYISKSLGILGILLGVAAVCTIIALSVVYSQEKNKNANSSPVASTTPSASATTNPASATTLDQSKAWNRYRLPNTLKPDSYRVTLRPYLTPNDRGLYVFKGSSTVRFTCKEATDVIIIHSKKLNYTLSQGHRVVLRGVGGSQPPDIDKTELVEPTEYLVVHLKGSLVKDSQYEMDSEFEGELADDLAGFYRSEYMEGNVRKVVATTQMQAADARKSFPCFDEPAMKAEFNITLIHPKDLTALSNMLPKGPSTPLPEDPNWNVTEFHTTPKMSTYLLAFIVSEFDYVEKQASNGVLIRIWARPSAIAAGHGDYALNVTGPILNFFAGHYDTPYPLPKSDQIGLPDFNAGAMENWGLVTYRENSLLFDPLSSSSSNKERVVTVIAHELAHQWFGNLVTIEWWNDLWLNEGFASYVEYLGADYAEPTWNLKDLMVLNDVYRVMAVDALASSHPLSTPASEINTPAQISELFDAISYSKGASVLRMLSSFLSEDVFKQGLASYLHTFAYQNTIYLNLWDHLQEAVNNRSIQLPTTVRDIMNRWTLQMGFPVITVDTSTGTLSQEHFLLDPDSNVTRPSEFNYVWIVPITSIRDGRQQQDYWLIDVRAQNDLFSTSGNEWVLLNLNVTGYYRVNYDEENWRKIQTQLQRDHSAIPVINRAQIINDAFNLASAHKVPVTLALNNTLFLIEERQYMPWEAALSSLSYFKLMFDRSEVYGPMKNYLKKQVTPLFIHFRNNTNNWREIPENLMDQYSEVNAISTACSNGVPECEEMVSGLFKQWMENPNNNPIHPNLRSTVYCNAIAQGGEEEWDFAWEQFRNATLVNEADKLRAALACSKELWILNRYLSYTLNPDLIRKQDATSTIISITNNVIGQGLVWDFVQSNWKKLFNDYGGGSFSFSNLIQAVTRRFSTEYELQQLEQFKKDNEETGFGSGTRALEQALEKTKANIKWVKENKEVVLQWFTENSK

| IC50 [1] | IC50 (Aminopeptidase N [2]) | IC50 (Aminopeptidase N [3]) | IC50 (MDA-MB-231) | Compound | IC50 [4] |
| --- | --- | --- | --- | --- | --- |
| > 100 µM |  |  |  | O=C(CN1C(=O)C2(OCCO2)c2cc(Br)ccc21)NO |  |
|  | 22.5 µM |  |  | CC(C)C[C@H](NC(=O)CN1C(=O)C2(OCCO2)c2cc(Br)ccc21)C(=O)NO |  |
|  | 631 µM |  |  | CC[C@H](C)[C@H](NC(=O)CN1C(=O)C2(OCCO2)c2cc(Br)ccc21)C(=O)NO |  |
|  | > 1000 µM |  |  | O=C(CN1C(=O)C2(OCCO2)c2cc(Br)ccc21)NC(C(=O)NO)c1ccccc1 (stereo not drawn) |  |
|  | 226 µM |  |  | CC(C)[C@H](NC(=O)CN1C(=O)C2(OCCO2)c2cc(Br)ccc21)C(=O)NO |  |
| > 100 µM | 0.31 µM | 9.58 µM | 177 µM | O=C(CN1C(=O)C2(OCCO2)c2cc(Cl)ccc21)NO | 167 µM |
| > 100 µM | 5.3 µM | 16.2 µM | 180 µM | O=C(CN1C(=O)C2(OCCO2)c2cc(F)ccc21)NO | 142 µM |
|  | 209 µM |  |  | O=C(CN1C(=O)C2(OCCO2)c2ccccc21)NO |  |
|  | 2.63 µM |  |  | Cc1ccc2c(c1)C1(OCCO1)C(=O)N2CC(=O)NO |  |
| > 100 µM | 1.3 µM | 10.9 µM | 259 µM | O=C(CN1C(=O)C2(OCCCO2)c2cc(Cl)ccc21)NO | 233 µM |
| > 100 µM | 6.71 µM | 97.5 µM | 576 µM | O=C(CN1C(=O)C2(OCCCO2)c2cc(F)ccc21)NO | 457 µM |
| > 100 µM | 3.4 µM | 19.7 µM | 55.1 µM | O=C(CN1C(=O)C2(OCCCO2)c2cc(Br)ccc21)NO | 137 µM |
|  | 266 µM |  |  | O=C(CN1C(=O)C2(OCCCO2)c2ccccc21)NO |  |
|  | 3.33 µM |  |  | Cc1ccc2c(c1)C1(OCCCO1)C(=O)N2CC(=O)NO |  |
| > 100 µM | 0.074 µM | 3.12 µM | 91.5 µM | O=C(CN1C(=O)C2(OCCCCO2)c2cc(Cl)ccc21)NO | 212 µM |
| > 100 µM | 4.06 µM | 15.2 µM | 114 µM | O=C(CN1C(=O)C2(OCCCCO2)c2cc(F)ccc21)NO | 553 µM |
| > 100 µM | 0.086 µM | 12.1 µM | 32.9 µM | O=C(CN1C(=O)C2(OCCCCO2)c2cc(Br)ccc21)NO | 409 µM |
| 0.33 µM | 6.6 µM |  |  | O=C(CNC(=O)CN1C(=O)C2(OCCO2)c2cc(Br)ccc21)NO |  |
|  | 26.4 µM |  |  | O=C(CN1C(=O)C2(OCCO2)c2cc(Br)ccc21)N[C@@H](Cc1ccccc1)C(=O)NO |  |
|  |  |  |  | CC(C)C[C@H](NC(=O)[C@@H](O)[C@H](N)Cc1ccccc1)C(=O)O [UBENIMEX] | 632 µM |
